Where two headings read alike, the source gives them in different places. One block for each compound: values may come before it.
Tests used:
TEL-CSF1R-BaF3 = target: T1, TEL-CSF1R-BaF3 (Homo sapiens, UniProt P07333); assay: Proliferation of TEL-CSF1R-BaF3 cells (CCK-8, 72 hours); format: cell-based; conditions: for GI50: 72 hours incubation, CCK-8
T1 construct: expressed in transfected cells; host or cells: mouse BaF3 cells (ATCC), retroviral transduction with MSCV-Puro vector, IL-3 withdrawn; the other entry of the earlier key: ETV6 (P41212, Transcription factor ETV6)
T1 sequence (P07333 582-910 limits assumed): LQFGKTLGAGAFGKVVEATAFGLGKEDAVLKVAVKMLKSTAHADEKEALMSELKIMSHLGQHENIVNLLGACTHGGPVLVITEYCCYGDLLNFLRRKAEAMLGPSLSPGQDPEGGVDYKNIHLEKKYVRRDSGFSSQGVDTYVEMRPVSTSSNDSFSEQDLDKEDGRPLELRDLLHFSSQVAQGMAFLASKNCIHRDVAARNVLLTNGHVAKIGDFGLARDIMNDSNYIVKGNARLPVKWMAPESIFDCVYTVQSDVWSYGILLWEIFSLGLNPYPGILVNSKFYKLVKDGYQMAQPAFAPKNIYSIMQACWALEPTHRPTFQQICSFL
Protocol: (§1) The incubated cells were detected by CCK-8 (purchased from MedChem Express, China) cell viability detection kit (CCK-8 can be reduced by dehydrogenases in living cells to a highly water-soluble yellow formazan product, and the amount of the generated formazan product is proportional to the number of living cells). The number of living cells was quantified by a microplate reader, and the GI50 for each compound was calculated (the results are shown in Table 2).
The construction method of the TEL-CSF1R-BaF3 cell line (a cell line stably expressing CSF1R kinase) was as follows: the sequence of human CSF1R kinase region was amplified by PCR and inserted into the MSCV-Puro vector (Clontech) with an N-terminal TEL fragment, and stably transferred into mouse BaF3 cells (purchased from ATCC, USA) by a retroviral method, and IL-3 growth factor was removed, finally a cell line dependent on CSF1R transferred protein was obtained.

M-NSF-60 = assay: Proliferation of M-NSF-60 cells with M-CSF (CCK-8, 72 hours); format: cell-based, mouse; conditions: for GI50: Mus musculus, read-out: M-NSF-60 (GI50/μM)
Protocol: as §1

[1] = M-CSF 50 ng/ml in medium, 72 hours incubation, CCK-8
[2] = result in words, summary of Table 2

SMILES: COc1cc2nccc(Oc3ccc(NC(=O)Cc4ccc(C(F)(F)F)cc4)c(Cl)c3)c2cc1OC [Example 7, N-(2-chloro-4-((6,7-dimethoxyquinolin-4-yl)oxy)phenyl)-2-(4-(trifluoromethyl)phenyl)acetamide]
GI50 (TEL-CSF1R-BaF3): 0.009 µM
GI50 (M-NSF-60; [1]): 0.03 µM

SMILES: COc1cc2nccc(Oc3ccc(NC(=O)Cc4ccccc4C(F)(F)F)cc3)c2cc1OC [Example 40, N-(4-((6,7-dimethoxyquinolin-4-yl)oxy)phenyl)-2-(2-(trifluoromethyl)phenyl)acetamide]
GI50 (TEL-CSF1R-BaF3): 0.007 µM
GI50 (M-NSF-60; [1]): 0.091 µM

SMILES: COc1cc2nccc(Oc3ccc(NC(=O)Cc4c(F)cccc4F)cc3)c2cc1OC [Example 14, N-(4-((6,7-dimethoxyquinolin-4-yl)oxy)phenyl)-2-(2,6-difluorophenyl)acetamide]
GI50 (TEL-CSF1R-BaF3): 0.012 µM
GI50 (M-NSF-60; [1]): 0.26 µM

SMILES: COc1cc2nccc(Oc3ccc(NC(=O)Cc4ccc(Cl)c(C(F)(F)F)c4)c(Cl)c3)c2cc1OC [Example 23, N-(2-chloro-4-((6,7-dimethoxyquinolin-4-yl)oxy)phenyl)-2-(4-chloro-3-(trifluoromethyl)phenyl)acetamide]
GI50 (TEL-CSF1R-BaF3): 0.008 µM
GI50 (M-NSF-60; [1]): 0.061 µM

SMILES: COc1cccc(CC(=O)Nc2ccc(Oc3ncnc4cc(OC)c(OC)cc34)cc2)c1 [Comparative Example 4, N-(4-((6,7-dimethoxyquinazolin-4-yl)oxy)phenyl)-2-(3-methoxyphenyl)acetamide, reference compound]
GI50 (TEL-CSF1R-BaF3): 0.17 µM
inhibitory effect on the proliferation of TEL-CSF1R-BaF3 (TEL-CSF1R-BaF3; [2]): certain inhibitory activity
GI50 (M-NSF-60; [1]): 0.55 µM
inhibitory effect on the proliferation of M-NSF-60 (M-NSF-60; [2]): certain inhibitory activity

SMILES: COc1cc2nccc(Oc3ccc(NC(=O)Cc4ccc(C)c(C(F)(F)F)c4)cc3)c2cc1OC [Example 1, N-(4-((6,7-dimethoxyquinolin-4-yl)oxy)phenyl)-2-(4-methyl-3-(trifluoromethyl)phenyl)acetamide]
GI50 (TEL-CSF1R-BaF3): 0.002 µM
GI50 (M-NSF-60; 72 h): 0.009 µM

SMILES: COc1ccc(CC(=O)Nc2ccc(Oc3ccnc4cc(OC)c(OC)cc34)cc2)cc1OC [Example 10, N-(4-((6,7-dimethoxyquinolin-4-yl)oxy)phenyl)-2-(3,4-dimethoxyphenyl)acetamide]
GI50 (TEL-CSF1R-BaF3): 0.009 µM
GI50 (M-NSF-60; [1]): 0.038 µM

SMILES: COc1cc2nccc(Oc3ccc(NC(=O)NCCCN4CCOCC4)cc3)c2cc1OC [Example 28, 1-(4-((6,7-dimethoxyquinolin-4-yl)oxy)phenyl)-3-(3-morpholinopropyl)urea]
GI50 (TEL-CSF1R-BaF3): 0.012 µM

SMILES: COc1cc2nccc(Oc3ccc(NC(=O)Cc4ccc(Cl)c(C(F)(F)F)c4)cc3C#N)c2cc1OC [Example 39, N-(3-cyano-4-((6,7-dimethoxyquinolin-4-yl)oxy)phenyl)-2-(4-chloro-3-(trifluoromethyl)phenyl)acetamide]
GI50 (TEL-CSF1R-BaF3): 0.022 µM
GI50 (M-NSF-60; [1]): 0.61 µM

SMILES: COc1cc2nccc(Oc3ccc(NC(=O)Cc4cccc(C(F)(F)F)c4)c(Cl)c3)c2cc1OC [Example 6, N-(2-chloro-4-((6,7-dimethoxyquinolin-4-yl)oxy)phenyl)-2-(3-(trifluoromethyl)phenyl)acetamide]
GI50 (TEL-CSF1R-BaF3): 0.017 µM
GI50 (M-NSF-60; [1]): 0.06 µM

SMILES: COc1cc2nccc(Oc3ncc(NC(=O)Cc4cccc(C(F)(F)F)c4)cc3Cl)c2cc1OC [Comparative Example 2, N-(5-chloro-6-((6,7-dimethoxyquinolin-4-yl)oxy)pyridin-3-yl)-2-(3-(trifluoromethyl)phenyl)acetamide, reference compound]
GI50 (TEL-CSF1R-BaF3): 2.54 µM
GI50 (M-NSF-60; [1]): 7.84 µM

SMILES: COc1cc2nccc(Oc3ccc(C(=O)NCc4cccc(C(F)(F)F)c4)cc3)c2cc1OC [Comparative Example 3, N-(3-(trifluoromethyl)benzyl)-4-((6,7-dimethoxyquinolin-4-yl)oxy)benzamide, reference compound]
GI50 (TEL-CSF1R-BaF3): 1.23 µM
GI50 (M-NSF-60; [1]): 2.4 µM

SMILES: COc1cc2nccc(Oc3ccc(NC(=O)Cc4ccccc4)cc3)c2cc1OC [Example 3, N-(4-((6,7-dimethoxyquinolin-4-yl)oxy)phenyl)-2-phenylacetamide]
GI50 (TEL-CSF1R-BaF3): 0.012 µM
GI50 (M-NSF-60; [1]): 0.1 µM

SMILES: COc1cc2nccc(Oc3ccc(NC(=O)NCCCN4CCN(C)CC4)cc3)c2cc1OC [Example 29, 1-(4-((6,7-dimethoxyquinolin-4-yl)oxy)phenyl)-3-(3-(4-methylpiperazin-1-yl)propyl)urea]
GI50 (TEL-CSF1R-BaF3): 0.011 µM

SMILES: COc1cc2nccc(Oc3ccc(NC(=O)Cc4ccccc4)cn3)c2cc1OC [Comparative Example 1, N-(6-((6,7-dimethoxyquinolin-4-yl)oxy)pyridin-3-yl)-2-phenylacetamide, reference compound]
GI50 (TEL-CSF1R-BaF3): > 10 µM
GI50 (M-NSF-60; 72 h): > 10 µM

More lines, in order of falling GI50 (TEL-CSF1R-BaF3), values ahead:

GI50 (TEL-CSF1R-BaF3): 0.006 µM
SMILES: COc1cc2nccc(Oc3ccc(NC(=O)Cc4cccc(F)c4)cc3)c2cc1OC [Example 20, N-(4-((6,7-dimethoxyquinolin-4-yl)oxy)phenyl)-2-(3-fluorophenyl)acetamide]
GI50 (M-NSF-60; [1]): 0.13 µM

GI50 (TEL-CSF1R-BaF3): 0.006 µM
SMILES: COc1cc2nccc(Oc3ccc(NC(=O)Cc4ccc(Cl)c(C(F)(F)F)c4)c(C)c3)c2cc1OC [Example 26, N-(2-methyl-4-((6,7-dimethoxyquinolin-4-yl)oxy)phenyl)-2-(4-chloro-3-(trifluoromethyl)phenyl)acetamide]
GI50 (M-NSF-60; [1]): 0.06 µM

GI50 (TEL-CSF1R-BaF3): 0.004 µM
SMILES: COc1cc2nccc(Oc3ccc(NC(=O)Cc4ccc(Cl)c(C(F)(F)F)c4)cc3OC)c2cc1OC [Example 37, N-(3-methoxy-4-((6,7-dimethoxyquinolin-4-yl)oxy)phenyl)-2-(4-chloro-3-(trifluoromethyl)phenyl)acetamide]
GI50 (M-NSF-60; [1]): 0.075 µM

GI50 (TEL-CSF1R-BaF3): 0.003 µM
SMILES: COc1cc2nccc(Oc3ccc(NC(=O)Cc4ccc(F)cc4F)cc3)c2cc1OC [Example 15, N-(4-((6,7-dimethoxyquinolin-4-yl)oxy)phenyl)-2-(2,4-difluorophenyl)acetamide]
GI50 (M-NSF-60; [1]): 0.051 µM

GI50 (TEL-CSF1R-BaF3): 0.003 µM
SMILES: COc1cc2nccc(Oc3ccc(NC(=O)Cc4ccc(F)c(F)c4)cc3)c2cc1OC [Example 12, N-(4-((6,7-dimethoxyquinolin-4-yl)oxy)phenyl)-2-(3,4-difluorophenyl)acetamide]
GI50 (M-NSF-60; [1]): 0.065 µM

GI50 (TEL-CSF1R-BaF3): 0.003 µM
SMILES: COc1cc2nccc(Oc3ccc(NC(=O)Cc4ccc(Cl)c(C(F)(F)F)c4)cc3F)c2cc1OC [Example 25, N-(3-fluoro-4-((6,7-dimethoxyquinolin-4-yl)oxy)phenyl)-2-(4-chloro-3-(trifluoromethyl)phenyl)acetamide]
GI50 (M-NSF-60; [1]): 0.05 µM

GI50 (TEL-CSF1R-BaF3): 0.002 µM
SMILES: COc1cc2nccc(Oc3ccc(NC(=O)Cc4ccc(Cl)c(Cl)c4)cc3)c2cc1OC [Example 17, N-(4-((6,7-dimethoxyquinolin-4-yl)oxy)phenyl)-2-(3,4-dichlorophenyl)acetamide]
GI50 (M-NSF-60; [1]): 0.042 µM

GI50 (TEL-CSF1R-BaF3): 0.002 µM
SMILES: COc1cc2nccc(Oc3ccc(NC(=O)Cc4ccc(Cl)c(C(F)(F)F)c4)c(F)c3)c2cc1OC [Example 24, N-(2-fluoro-4-((6,7-dimethoxyquinolin-4-yl)oxy)phenyl)-2-(4-chloro-3-(trifluoromethyl)phenyl)acetamide]
GI50 (M-NSF-60; [1]): 0.024 µM

GI50 (TEL-CSF1R-BaF3): 0.002 µM
SMILES: COc1cc2nccc(Oc3ccc(NC(=O)Cc4ccc5c(c4)OCO5)cc3)c2cc1OC [Example 18, N-(4-((6,7-dimethoxyquinolin-4-yl)oxy)phenyl)-2-(benzo[d][1,3]dioxol-5-yl)acetamide]
GI50 (M-NSF-60; [1]): 0.062 µM

GI50 (TEL-CSF1R-BaF3): 0.002 µM
SMILES: COc1cc2nccc(Oc3ccc(NC(=O)Cc4ccc(C(F)(F)F)cc4)cc3)c2cc1OC [Example 9, N-(4-((6,7-dimethoxyquinolin-4-yl)oxy)phenyl)-2-(4-(trifluoromethyl)phenyl)acetamide]
GI50 (M-NSF-60; [1]): 0.007 µM

GI50 (TEL-CSF1R-BaF3): 0.001 µM
SMILES: COc1cc2nccc(Oc3ccc(NC(=O)Cc4ccc(C)c(F)c4)cc3)c2cc1OC [Example 16, N-(4-((6,7-dimethoxyquinolin-4-yl)oxy)phenyl)-2-(3-fluoro-4-methylphenyl)acetamide]
GI50 (M-NSF-60; [1]): 0.033 µM

GI50 (TEL-CSF1R-BaF3): 0.001 µM
SMILES: COc1cc2nccc(Oc3ccc(NC(=O)Cc4ccc(Cl)c(F)c4)cc3)c2cc1OC [Example 5, N-(4-((6,7-dimethoxyquinolin-4-yl)oxy)phenyl)-2-(4-chloro-3-fluorophenyl)acetamide]
GI50 (M-NSF-60; [1]): 0.035 µM

GI50 (TEL-CSF1R-BaF3): 0.001 µM
SMILES: COc1cc2nccc(Oc3ccc(NC(=O)Cc4ccc(C)c(C)c4)cc3)c2cc1OC [Example 11, N-(4-((6.7-dimethoxyquinolin-4-yl)oxy)phenyl)2-(3,4-dimethylphenyl)acetamide]
GI50 (M-NSF-60; [1]): 0.005 µM

GI50 (TEL-CSF1R-BaF3): 0.001 µM
SMILES: COc1cc2nccc(Oc3ccc(NC(=O)Cc4cccc(C(F)(F)F)c4)cc3)c2cc1OC [Example 8, N-(4-((6,7-dimethoxyquinolin-4-yl)oxy)phenyl)-2-(3-(trifluoromethyl)phenyl)acetamide]
GI50 (M-NSF-60; [1]): 0.006 µM

GI50 (TEL-CSF1R-BaF3): 0.0008 µM
SMILES: COc1cc2nccc(Oc3ccc(NC(=O)Cc4ccc5ccccc5c4)cc3)c2cc1OC [Example 19, N-(4-((6,7-dimethoxyquinolin-4-yl)oxy)phenyl)-2-(naphth-2-yl)acetamide]
GI50 (M-NSF-60; [1]): 0.074 µM

From patent US20250186452A1, “NOVEL USE OF QUINOLINE COMPOUND” (TARAPEUTICS SCIENCE INC., priority 2022, published 2025)
